Test [1] has as its target T1, H3R-373 (Homo sapiens, UniProt Q9Y5N1, INS445KMKKKTCL). As to the kind of experiment: cell-based. Details: species or system HEK293-EPAC stably expressing H3R isoform. The settings on record: for H3R-373 α: relative to histamine, agonist; for Emax: HEK293-EPAC stably expressing H3R isoform, read-out: H3R-373 α.
In test [2] the target is T2, H3R-365 (Homo sapiens, UniProt Q9Y5N1). As to the kind of experiment: cell-based. Details: species or system HEK293-EPAC stably expressing H3R isoform. The settings on record: for H3R-365 α: relative to histamine, agonist; for Emax: HEK293-EPAC stably expressing H3R isoform, read-out: H3R-365 α.
The target in test [3] is T3, H3R-445 (Homo sapiens, UniProt Q9Y5N1). Briefly: cell-based. Details: species or system HEK293-EPAC stably expressing H3R isoform. The settings on record: for H3R-445 α: relative to histamine, agonist; for Emax: HEK293-EPAC stably expressing H3R isoform, read-out: H3R-445 α.
In test [4] the target is T4, H3R-453 (Homo sapiens, UniProt Q9Y5N1). Briefly: cell-based. Also on record: species or system HEK293-EPAC stably expressing H3R isoform. The settings on record: for H3R-453 α: relative to histamine, agonist; for Emax: HEK293-EPAC stably expressing H3R isoform, read-out: H3R-453 α.
The target of test [5] is T5, H3R-413 (Homo sapiens, UniProt Q9Y5N1, DEL274-305). As to the kind of experiment: cell-based. Details: species or system HEK293-EPAC stably expressing H3R isoform.
In test [6] the target is T6, H3R-415 (Homo sapiens, UniProt Q9Y5N1). Briefly: cell-based. The settings on record: for H3R-415 α: relative to histamine, agonist; for Emax: HEK293-EPAC stably expressing H3R isoform, read-out: H3R-415 α. Also on record: species or system HEK293-EPAC stably expressing H3R isoform.
In test [7] the target is T5, H3R-413. Briefly: cell-based. Also on record: species or system HEK293-EPAC stably expressing H3R isoform. The settings on record: for H3R-413 α: relative to histamine, agonist; for Emax: HEK293-EPAC stably expressing H3R isoform, read-out: H3R-413 α.
Test [8] concerns the target T3, H3R-445. Briefly: cell-based. Also on record: species or system HEK293-EPAC stably expressing H3R isoform. The settings on record: for Emax: HEK293-EPAC stably expressing H3R isoform, read-out: H3R-445 α.
For test [9], the target named is T2, H3R-365. Briefly: cell-based. Also on record: species or system HEK293-EPAC stably expressing H3R isoform.
For test [10], the target named is T5, H3R-413. Briefly: biochemical.
Test [11] addresses T1, H3R-373.
Test [12] has as its target T2, H3R-365. Briefly: cell-based. Details: species or system HEK293-EPAC stably expressing H3R isoform. The settings on record: for Emax: HEK293-EPAC stably expressing H3R isoform, read-out: H3R-365 α.
Test [13] concerns the target T6, H3R-415. As to the kind of experiment: cell-based. Details: species or system HEK293-EPAC stably expressing H3R isoform. The settings on record: for Emax: HEK293-EPAC stably expressing H3R isoform, read-out: H3R-415 α.
In test [14] the target is T1, H3R-373. Also on record: species or system HEK293-EPAC stably expressing H3R isoform. The settings on record: inverse agonism, constitutive signaling; antagonist.
The target in test [15] is T6, H3R-415. Briefly: cell-based. Also on record: species or system HEK293-EPAC stably expressing H3R isoform.
Test [16] concerns the target T1, H3R-373. Details: species or system HEK293-EPAC stably expressing H3R isoform. The settings on record: agonist.
For test [17], the target named is T4, H3R-453. Also on record: species or system HEK293-EPAC stably expressing H3R isoform. The settings on record: agonist.
For test [18], the target named is T3, H3R-445. Briefly: cell-based. Details: species or system HEK293-EPAC stably expressing H3R isoform.
Test [19] concerns the target T3, H3R-445. Briefly: biochemical.
Test [20] has as its target T2, H3R-365. As to the kind of experiment: biochemical.
The target of test [21] is T6, H3R-415. Briefly: biochemical.
Test [22] has as its target T3, H3R-445. As to the kind of experiment: cell-based. Details: species or system HEK293-EPAC stably expressing H3R isoform. This is another data set of the same source.
Where [23] appears, read: inverse agonism, pitolisant = -1, antagonist.

Like-named read-outs stand apart in the source and are kept apart here.

This note sets out measurements from publication doi:10.1101/2023.12.06.570349v1 (biorxiv, 2023).

`CN1CCC(Cc2c[nH]cn2)CC1` [Methimepip]: the “H3R-373 α” value at H3R-373 [1] amounted to 0.8 ± 0.1%. The “H3R-365 α” value on H3R-365 [2] is 0.8 ± 0.4%. For the same compound, on H3R-445 [3], the “H3R-445 α” value amounted to 1.0 ± 0.2%. Besides, the “H3R-453 α” value at H3R-453 [4] was found to be 1.1 ± 0.2%. The EC50 – broadly, the concentration giving half of the maximal effect – at H3R-413 [5] was 0.631 nM. In addition, at H3R-415 [6], the “H3R-415 α” value was found to be 0.8 ± 0.1%. Besides, at H3R-413 [7], the “H3R-413 α” value is on record as 1.0 ± 0.1%.
As to `CCNC(=O)C1CC(F)(c2ccc(CN3CCCC3)c(F)c2)C1` (centres unmarked) [PF-3654746, N-ethyl-3-fluoro-3-[3-fluoro-4-(pyrrolidin-1-ylmethyl)phenyl]cyclobutane-1-carboxamide], the values for the Emax at H3R-445 [8], at H3R-365 [12] and on H3R-415 [13] were -120 ± 40%, -100 ± 10% and -110 ± 30%, respectively. Besides, the EC50 at H3R-365 [9] was 1 nM; at H3R-415 [15], 0.501 nM. The results for the Ki on H3R-413 [10] and at H3R-373 [11] were 5.01 nM and 126 nM, respectively. The “H3R-373 pEC50” value at H3R-373 [14] worked out at 9.1 ± 0.4 M.
Take `c1cc(Cc2cnc[nH]2)ccn1` [immethridine, 4-(3H-imidazol-4-ylmethyl)pyridine]: the Emax came to 90 ± 10% at H3R-373 [1]; 110 ± 50% at H3R-365 [2]; 90 ± 20% on H3R-445 [3]; 110 ± 40% on H3R-453 [4]; 70 ± 10% on H3R-415 [6]; 100 ± 10% at H3R-413 [7]. Besides, the “H3R-373 pEC50” value at H3R-373 [16] was determined as 10.1 ± 0.7 M. Moreover, the Ki (usually the dissociation constant of the complex between target and ligand, obtained from inhibition or displacement) at H3R-413 [10] is 0.398 nM; at H3R-373 [11], 0.1 nM.
For the compound `CCCNC1CN(c2ccnc(N)n2)C1` [VUF16839, 4-(3-(Propylamino)azetidin-1-yl)pyrimidin-2-amine], at H3R-453 [17], the “H3R-453 pEC50” value is on record as 8.0 ± 0.1 M. Also, the Emax on H3R-373 [1] was 60 ± 20%; at H3R-365 [2] it was 70 ± 20%; at H3R-445 [3], 90%; on H3R-453 [4] it was 90 ± 30%; at H3R-415 [6], 50 ± 10%; on H3R-413 [7], 80 ± 20%. Besides, the Ki at H3R-413 [10] is 2 nM; at H3R-373 [11] it was 0.398 nM. For the same compound, it took 1 nM to reach a half-maximal effect at H3R-445 [18] (EC50).
With `c1nc(CC2CCNCC2)c[nH]1` [Immepip], the “H3R-373 α” value at H3R-373 [1] was found to be 0.8 ± 0.2%. Further, the “H3R-373 pEC50” value on H3R-373 [16] was determined as 10.1 ± 0.2 M. Further, on H3R-365 [2], the “H3R-365 α” value came out at 1.1 ± 0.1%. For the same compound, at H3R-445 [3], the “H3R-445 α” value came out at 1.0 ± 0.0%. Also, the “H3R-453 α” value at H3R-453 [4] was found to be 0.9 ± 0.1%. At H3R-413 [5], this compound had an EC50 of 0.2 nM. Besides, the “H3R-415 α” value at H3R-415 [6] turned out to be 0.9 ± 0.1%. Also, on H3R-413 [7], the “H3R-413 α” value is reported as 1.0 ± 0.0%.
For `NCCCCc1c[nH]cn1` [imbutamine, 4-(3H-imidazol-4-yl)butan-1-amine], the Emax worked out at 80 ± 10% at H3R-373 [1]; 90 ± 30% on H3R-365 [2]; 100 ± 10% at H3R-445 [3]; 120 ± 30% on H3R-453 [4]; 80 ± 10% at H3R-415 [6]; 90% at H3R-413 [7]. Further, the “H3R-373 pEC50” value on H3R-373 [16] is 9.5 ± 0.4 M. The figures for the inhibition constant (Ki) on H3R-413 [10] and on H3R-373 [11] were 1.58 nM and 0.398 nM, respectively.
`C[C@@H]1CCCN1CCc1cc2cc(-c3ccc(C#N)cc3)ccc2o1` [ABT-239, 4-[2-[2-[(2R)-2-methylpyrrolidin-1-yl]ethyl]-1-benzofuran-5-yl]benzonitrile]: the Emax on H3R-445 [8] is -100 ± 20%; at H3R-365 [12], -110%; at H3R-415 [13] it was -50 ± 30%.
The corresponding values for `S=C(NC1CCCCC1)N1CCC(c2c[nH]cn2)CC1` [thioperamide, N-cyclohexyl-4-(3H-imidazol-4-yl)piperidine-1-carbothioamide] are -90 ± 10%, -100% and -80 ± 80%.
In the case of `N=C(N)SCCCc1cnc[nH]1` [VUF8328, 3-(1H-imidazol-5-yl)propyl carbamimidothioate], the Emax on H3R-373 [1] came out at 70 ± 30%; at H3R-365 [2], 70 ± 20%; at H3R-445 [3], 80 ± 20%; at H3R-453 [4], 90 ± 40%; at H3R-415 [6], 50 ± 20%; at H3R-413 [7] it was 80 ± 10%. The “H3R-373 pEC50” value on H3R-373 [16] is listed as 9.0 ± 0.8 M. The Ki is 1.26 nM on H3R-413 [10]; 0.316 nM at H3R-373 [11]; 1.26 nM at H3R-445 [19]; 0.794 nM at H3R-365 [20]; 1.58 nM at H3R-415 [21].
As for `O=C(c1ccc(CN2CCOCC2)cc1)N1CCN(C2CC2)CC1` [bavisant, (4-Cyclopropyl-piperazin-1-yl)-(4-morpholin-4-ylmethyl-phenyl)-methanone], the “H3R-445 α” value at H3R-445 [8] (setting [23]) was -1.0 ± 0,3%. Further, the EC50 on H3R-365 [9] is 3.98 nM; at H3R-445 [22], 1 nM; at H3R-415 [15], 0.794 nM. Further, the Ki at H3R-413 [10] is 2.51 nM; on H3R-373 [11], 79.4 nM. For the same compound, on H3R-365 [12] (setting [23]), the “H3R-365 α” value is given as -1.0 ± 0.0%. Also, on H3R-415 [13] (setting [23]), the “H3R-415 α” value was -0.9 ± 0.0%.
Consider `N=C(N)SCCc1cnc[nH]1` [imetit, 2-(3H-imidazol-4-yl)ethylsulfanylmethanimidamide], for which the Emax was 80 ± 30% at H3R-373 [1]; 110 ± 20% at H3R-365 [2]; 90 ± 10% at H3R-445 [3]; 100 ± 30% on H3R-453 [4]; 70% on H3R-415 [6]; 100% at H3R-413 [7]. Also, the Ki at H3R-413 [10] is 0.631 nM; at H3R-373 [11] it was 0.126 nM. On H3R-413 [5], the EC50 is 0.316 nM.
With `CN(C)CCCCCc1c[nH]cn1` [dimethyl-impentamine, 5-(3H-imidazol-4-yl)-N,N-dimethylpentan-1-amine], the Emax at H3R-373 [1] worked out at 70 ± 10%; on H3R-365 [2], 100 ± 20%; on H3R-445 [3] it was 60 ± 20%; at H3R-415 [6] it was 40 ± 10%; on H3R-413 [7] it was 50 ± 20%. Further, the “H3R-373 pEC50” value on H3R-373 [16] turned out to be 7.9 ± 0.4 M. Moreover, the Ki at H3R-413 [10] is 31.6 nM; at H3R-373 [11] it was 20 nM; at H3R-445 [19], 25.1 nM; at H3R-365 [20] it was 20 nM; at H3R-415 [21], 31.6 nM. For the same compound, the EC50 at H3R-413 [5] is 79.4 nM.
For the compound `N=C(NCc1ccc(Cl)cc1)SCCCc1c[nH]cn1` [clobenpropit, N’-[(4-chlorophenyl)methyl]-1-[3-(3H-imidazol-4-yl)propylsulfanyl]methanimidamide], the Emax at H3R-445 [8] was -100 ± 30%; at H3R-365 [12], -80 ± 10%; at H3R-415 [13], -80%.
